Test results taken from ChEMBL document CHEMBL1132129, “Stereoselective synthesis of a new muscarinic M3 receptor antagonist, J-104129” (Bioorg Med Chem Lett, 1999).

Target: Muscarinic acetylcholine receptor M3 (Homo sapiens, UniProt P20309)
Assay: Binding affinity for human cloned Muscarinic M3 receptors

Sequence of Muscarinic acetylcholine receptor M3 (P20309 whole entry): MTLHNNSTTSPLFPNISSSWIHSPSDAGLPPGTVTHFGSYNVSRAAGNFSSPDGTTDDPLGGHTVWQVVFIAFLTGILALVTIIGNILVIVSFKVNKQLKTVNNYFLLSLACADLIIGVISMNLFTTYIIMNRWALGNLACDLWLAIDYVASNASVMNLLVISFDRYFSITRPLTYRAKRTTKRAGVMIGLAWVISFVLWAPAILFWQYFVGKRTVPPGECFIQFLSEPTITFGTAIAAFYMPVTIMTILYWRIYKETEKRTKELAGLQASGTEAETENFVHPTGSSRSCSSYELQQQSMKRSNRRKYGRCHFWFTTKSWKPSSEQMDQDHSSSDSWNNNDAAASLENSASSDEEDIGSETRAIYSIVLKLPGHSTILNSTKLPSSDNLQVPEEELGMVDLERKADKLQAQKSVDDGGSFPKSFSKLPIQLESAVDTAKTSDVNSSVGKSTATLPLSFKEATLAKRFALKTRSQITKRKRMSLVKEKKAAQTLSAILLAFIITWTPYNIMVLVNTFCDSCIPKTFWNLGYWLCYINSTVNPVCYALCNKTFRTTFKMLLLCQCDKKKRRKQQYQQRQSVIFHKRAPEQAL

CC(C)=CCCN1CCC(NC(=O)[C@](O)(c2ccccc2)C2CCCC2)CC1
Ki: 4.2 nM
